Like-named read-outs stand apart in the source and are kept apart here.
What was measured:
[1] = system: HT22 cells under OGD/R injury; experiment: Apoptosis level of HT22 cells under OGD/R (TUNEL staining and immunoblotting); type: cell-based
Description: HT22 cells were washed with phosphate buffered saline (PBS), then DMEM sugar‐free medium (Gibco, USA) was added and placed in the anaerobic incubator of 5% CO2, 1% O2, and 37 °C for 6 h. PB3 or other compounds were previously dissolved in DMEM/F‐12 with 10% FBS and 1% penicillin/streptomycin. After undergoing OGD for 6 h, the medium was replaced by DMEM/F‐12 with 10% FBS and 1% penicillin/streptomycin containing PB3 or other compounds and kept in a humidified 5% CO2, 37 °C incubator for 24 h.
Apoptosis level was evaluated by TUNEL staining and flow cytometry. For TUNEL staining, HT22 cells were treated with 4% paraformaldehyde for 15 min. Then the fixed brain tissue slices and HT22 cells were permeabilized for 5 min using 1% Triton X‐100 (Sigma‐Aldrich, USA) dissolved in PBS. TUNEL staining was executed by following the instructions, using a one‐step TUNEL apoptosis assay kit (Meilunbio, China). Red fluorescence was utilized to identify apoptotic cells, while 4′, 6‐diamidino‐2‐phenylindole (DAPI) was used to counterstain the nuclei. The fluorescence microscope (Carl Zeiss, Germany) was used to obtain images. For flow cytometry, apoptotic cells were determined with the Annexin V‐Alexa Fluor 488/PI apoptosis detection kit (Yeasen, China) by following the instructions. EDTA‐free trypsin (Gibco, USA) was added to HT22 cells (2.5 × 10^5 cells). The cells were collected and washed with pre‐cooling PBS 2 times, then suspended in 250 µL 1× binding buffer. 100 µL cell suspension was dyed with 5 µL Annexin V‐Alexa Fluor 488 and 10 µL PI and plunged into darkness at room temperature for 15 min. Then the cell suspension was mixed with 400 µL of 1× binding buffer. Cell apoptosis was immediately determined by Cytek Aurora (Cytek Biosciences, USA).
Cells and tissues were homogenized in RIPA buffer (Beyotime, China) containing protease inhibitors (Biovision, USA) on ice for 30 min. After centrifugation (13000 r min^−1, 4 °C) for 10 min, the resulting supernatant was collected. The protein concentrations were determined by a BCA protein assay kit (Thermo Scientific, USA). After separating a 10% sodium dodecyl sulfate (SDS)‐polyacrylamide gel, protein on the gel was then transferred onto nitrocellulose membranes (Merck, USA), which were blocked with 5% bovine serum albumin for 1 h to prevent non‐specific binding. Then, the anti‐caspase 3 antibody (catalog no. 9662, Cell Signaling Technology, USA), anti‐Bcl‐2 antibody (catalog no. GTX100064, GeneTex, USA), anti‐G3BP1 antibody (catalog no. 66486‐1‐Ig, Proteintech, China), anti‐β‐tubulin antibody (catalog no. 66240‐1‐Ig, Proteintech, China), and anti‐β‐actin antibody (catalog no. 66009‐1‐Ig, Proteintech, China) were used for treating the membrane overnight at 4 °C. Bound antibodies were detected with the species‐appropriate horseradish peroxidase‐labeled secondary antibody (Jackson ImmunoResearch, USA) using ECL reagents (ShareBio, China). Protein‐specific signals were detected using a Bio‐Rad Imager (Bio‐Rad, USA), and the bands were quantified by densitometric analysis software (ImageJ). β‐tubulin or β‐actin was used as a loading control.

[2] = Brain and plasma concentrations after MCAO/reperfusion (BBB assessment); type: in vivo, mice; settings: C57BL/6, mouse, ip, 0.5 h after administration, 48 mg kg^−1 i.p., after 1.5 h of MCAO followed by reperfusion; for Kp at 0.5 h: brain / plasma, read-out: CBrain/Cplasma
Description: After 1.5 h of MCAO followed by reperfusion, each of 1 and 6c was administered at a dose of 48 mg kg^−1 intraperitoneally to mice, and the brain and plasma concentrations of each compound were measured at 0.5 h after administration. The ratios of brain to plasma concentrations of 1 and 6c were 0.37 and 0.57, respectively, confirming that the BBB permeability of compounds benefited from higher lipophilicity (Table 2 ). The decrease in 6c concentration in vivo may be due to changes in metabolic routes. Tertiary carbon atoms and terminal carbon atoms are easily metabolized through oxidative pathways,^[ [55] ^] so the introduction of isopropyl groups leads to the production of more metabolites, resulting in a decrease in the area under curve (AUC). The metabolites of oligomeric proanthocyanidins and their analogues are quite complex. Although there are a large number of metabolites, most of them have a flavan‐3‐ol core structure and contain many phenolic hydroxyl groups.^[ [56] ^] As mentioned above, phenolic hydroxyl groups are important active functional groups to exert neuroprotective effects, so it can be inferred that metabolites of 6c also have similar activity to 6c. In future work, radiolabeled pharmacokinetic studies and metabolite studies are needed to further elucidate the metabolism of the preferred compound.^[ [57] ^] Pharmacokinetic analyses were performed using a LC‐40D XS HPLC system (Shimadzu, Japan) coupled with a Sciex Triple Quad 5500 mass spectrometer (AB SCIEX, USA). Tested compounds PB3 and 6c were administered by i.p. injection (48 mg kg^−1, formulation solvent: normal saline). Blood samples were drawn from the retro‐orbital vein at 0.083, 0.25, 0.5, 1, 2, 4, 8, and 24 h post‐injection with EDTA dipotassium salt as an anticoagulant. Subsequently, the plasma fractions were collected in Eppendorf tubes and centrifuged at 4000 g for 5 min at 4 °C and stored at −80 °C for analysis. Brain tissue was mixed with four‐fold normal saline for homogenization (10 s per time with a 10 s interval for 3–5 times). Then, the mixture was centrifuged at 4000 g for 5 min at 4 °C, and the supernatant was stored at −80 °C for analysis. For sample preparation, the desired serial concentrations of working solutions were achieved by diluting a stock solution of analyte with 50% methanol in water solution. 2 µL of working solutions were added to 10 µL of the blank C57BL/6 mouse plasma/brain homogenate to achieve calibration standards of 10–10 000 ng mL^−1 (10, 20, 100, 200, 1000, 2000, 4000, 10 000 ng mL^−1) in a total volume of 12 µL. Three quality control samples at 20 ng mL^−1, 1600 ng mL^−1, and 8000 ng mL^−1 for plasma were prepared independently of those used for the calibration curves. These QC samples were prepared on the day of analysis in the same way as calibration standards.

[3] = 50 and 100 µM, compared with the model group
[4] = 50 µM, compared with the model group

Oc1cc(O)c2c(c1)O[C@H](c1ccc(O)c(O)c1)[C@@H](O)[C@@H]2c1c(O)cc(O)c2c1O[C@H](c1ccc(O)c(O)c1)[C@@H](O)C2 [Compound 1, procyanidin B3]
expression of Bcl‐2 [1, 3]: significantly increased | expression of cleaved caspase‐3 [1, 3]: significantly decreased | rate of TUNEL‐positive cells ([1]; HT22, OGD/R, different concentrations): dose‐dependently reduced | Kp at 0.5 h [2]: 0.37 | concentration at 0.5 h ([2]; brain, read-out: CBrain): 4790 ± 1610 ng/g | concentration at 0.5 h ([2]; plasma, read-out: Cplasma): 13000 ± 757 ng/mL

CC(C)c1c(O)cc(O)c2c1O[C@H](c1ccc(O)c(O)c1)[C@@H](O)[C@@H]2c1c(O)cc(O)c2c1O[C@H](c1ccc(O)c(O)c1)[C@@H](O)C2 [Compound 6c, 8‐Isopropyl‐(+)‐Catechin‐(4α,8)‐(+)‐Catechin]
expression of Bcl‐2 [1, 4]: increase the expression of Bcl‐2 | expression of cleaved caspase‐3 [1, 4]: decrease the expression of cleaved caspase‐3 | rate of TUNEL‐positive cells [1, 4]: reduce the rate of TUNEL‐positive cells | Kp at 0.5 h [2]: 0.57 | concentration at 0.5 h ([2]; brain, read-out: CBrain): 2810 ± 489 ng/g | concentration at 0.5 h ([2]; plasma, read-out: Cplasma): 4960 ± 1590 ng/mL
